Results: ChEMBL document CHEMBL4680352, “Rational design and synthesis of 6-aryl-6H-benzo[c]chromenes as non-steroidal progesterone receptor antagonists for use against cancers” (Bioorg Med Chem, 2021)
The source made the active and inactive calls. The rule behind the calls is not given here.

Key:
[1] = target: T1, Progesterone receptor (Homo sapiens) (UniProt P06401); assay: Antagonist activity at PR in human T47D cells assessed as inhibition of progesterone-induced alkaline phosphatase activity by alkaline phosphatase assay; format: cell-based; conditions: filed as antagonist
T1 sequence (whole entry): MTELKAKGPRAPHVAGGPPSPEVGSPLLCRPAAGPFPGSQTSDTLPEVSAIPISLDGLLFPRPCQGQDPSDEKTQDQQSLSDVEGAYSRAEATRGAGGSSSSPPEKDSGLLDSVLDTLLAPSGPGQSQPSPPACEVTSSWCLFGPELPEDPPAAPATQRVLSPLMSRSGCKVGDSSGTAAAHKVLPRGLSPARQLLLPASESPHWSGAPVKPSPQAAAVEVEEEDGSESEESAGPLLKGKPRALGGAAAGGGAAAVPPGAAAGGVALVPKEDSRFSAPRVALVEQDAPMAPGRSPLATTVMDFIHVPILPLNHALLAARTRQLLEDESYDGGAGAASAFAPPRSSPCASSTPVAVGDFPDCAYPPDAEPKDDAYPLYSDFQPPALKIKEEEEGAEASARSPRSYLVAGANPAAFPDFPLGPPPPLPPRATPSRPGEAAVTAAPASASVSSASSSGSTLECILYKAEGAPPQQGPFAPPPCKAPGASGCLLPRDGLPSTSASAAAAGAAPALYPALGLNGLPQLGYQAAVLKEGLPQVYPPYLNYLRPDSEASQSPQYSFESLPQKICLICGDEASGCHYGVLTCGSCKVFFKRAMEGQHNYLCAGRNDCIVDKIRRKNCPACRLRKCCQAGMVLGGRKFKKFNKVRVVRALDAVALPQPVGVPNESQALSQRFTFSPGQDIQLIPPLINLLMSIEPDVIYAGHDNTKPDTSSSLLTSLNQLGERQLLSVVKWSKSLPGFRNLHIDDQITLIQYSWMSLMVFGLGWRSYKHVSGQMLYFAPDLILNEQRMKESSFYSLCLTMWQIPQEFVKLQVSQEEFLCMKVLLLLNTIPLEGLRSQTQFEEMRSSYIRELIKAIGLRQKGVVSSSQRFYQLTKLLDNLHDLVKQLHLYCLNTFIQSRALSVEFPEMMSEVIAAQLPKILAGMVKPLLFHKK

[2] = tested on: MCF7; assay: Antiproliferative activity against human MCF7 cells assessed as cell growth inhibition at 6 uM by CCK-8 assay; format: functional, cell-based; conditions: time 24-72 hrs, TDE = time-dependent effect
[3] = tested on: MCF7; assay: Induction of cell cycle arrest in human MCF7 cells assessed as decrease in CDK4 protein expression at 3 to 12 uM after 48 hrs by Western blot analysis; format: functional, cell-based; conditions: dose 3-12 µM
[4] = tested on: MCF7; assay: Induction of apoptosis in human MCF7 cells at 6 uM measured after 48 hrs by Annexin V-FITC and propidium iodide staining based flow cytometry (Rvb =4.88%); format: functional
[5] = tested on: MDA-MB-231; assay: Antiproliferative activity against human MDA-MB-231 cells assessed as inhibition of cell viability after 72 hrs by CCK-8 assay; format: functional, cell-based; conditions: MDA-MB-231, 72 h
[6] = tested on: MCF7; assay: Antiproliferative activity against human MCF7 cells assessed as inhibition of cell viability after 72 hrs by CCK-8 assay; format: functional, cell-based; conditions: MCF7, 72 h
[7] = tested on: MCF7; assay: Induction of apoptosis in human MCF7 cells assessed as increase in Bax expression at 3 to 12 uM measured after 48 hrs by Western blot analysis; format: functional, cell-based; conditions: dose 3-12 µM
[8] = tested on: MCF-10A; assay: Cytotoxicity against human MCF-10A cells assessed as inhibition of cell viability after 72 hrs by CCK-8 assay; format: cell-based
[9] = tested on: MCF7; assay: Induction of apoptosis in human MCF7 cells at 6 uM measured after 72 hrs by Annexin V-FITC and propidium iodide staining based flow cytometry (Rvb =4.62%); format: functional
[10] = tested on: MCF7; assay: Induction of apoptosis in human MCF7 cells assessed as increase in p53 phosphorylation at Ser15 residue at 3 to 12 uM measured after 48 hrs by Western blot analysis; format: functional, cell-based; conditions: dose 3-12 µM
[11] = tested on: MCF7; assay: Induction of apoptosis in human MCF7 cells at 6 uM measured after 24 hrs by Annexin V-FITC and propidium iodide staining based flow cytometry (Rvb =3.54%); format: functional
[12] = tested on: MCF7; assay: Induction of apoptosis in human MCF7 cells assessed as increase in p53 expression measured at 3 to 12 uM after 48 hrs by Western blot analysis; format: functional, cell-based; conditions: dose 3-12 µM
[13] = tested on: MCF7; assay: Induction of apoptosis in human MCF7 cells assessed as increase in ratio of Bax to Bcl2 level measured at 3 to 12 uM after 48 hrs by Western blot analysis; format: functional, cell-based; conditions: dose 3-12 µM
[14] = tested on: PC-3; assay: Antiproliferative activity against human PC-3 cells assessed as inhibition of cell viability after 72 hrs by CCK-8 assay; format: functional, cell-based; conditions: PC-3, 72 h
[15] = Selectivity index, ratio of IC50 for human MCF-10A cells to IC50 for human MCF-7 cells
[16] = tested on: MCF7; assay: Decrease in Bcl-2 expression in human MCF7 cells at 3 to 12 uM measured after 48 hrs by Western blot analysis; format: functional, cell-based; conditions: dose 3-12 µM
[17] = tested on: MCF7; assay: Induction of apoptosis in human MCF7 cells at 3 uM measured after 48 hrs by Annexin V-FITC and propidium iodide staining based flow cytometry (reference value: 4.88%); format: functional
[18] = tested on: BGC-823; assay: Antiproliferative activity against human BGC-823 cells assessed as inhibition of cell viability after 72 hrs by CCK-8 assay; format: functional, cell-based; conditions: BGC-823, 72 h
[19] = tested on: MCF7; assay: Induction of apoptosis in human MCF7 cells at 12 uM measured after 48 hrs by Annexin V-FITC and propidium iodide staining based flow cytometry (Rvb =4.88%); format: functional
[20] = tested on: MCF7; assay: Induction of apoptosis in human MCF7 cells assessed as increase in cleaved caspase-3 level at 3 to 12 uM measured after 24 to 72 hrs by flow cytometry; format: functional, cell-based; conditions: dose 3-12 µM, time 24-72 hrs
[21] = tested on: MCF7; assay: Induction of cell cycle arrest in human MCF7 cells assessed as increase in p21 protein expression after 48 hrs by Western blot analysis; format: functional, cell-based; conditions: dose 3-12 µM
[22] = tested on: MCF7; assay: Induction of cell cycle arrest in human MCF7 cells assessed as decrease in cyclin D1 protein expression expression at 3 to 12 uM after 48 hrs by Western blot analysis; format: functional, cell-based; conditions: dose 3-12 µM
[23] = tested on: A549; assay: Antiproliferative activity against human A549 cells assessed as inhibition of cell viability after 72 hrs by CCK-8 assay; format: functional, cell-based; conditions: A549, 72 h

Row | inhibition [1] | IC50 [5] | IC50 [6] | IC50 [14] | IC50 [18] | SMILES | Activity [2] | Activity [3] | Activity [4] | Activity [7] | IC50 [8] | Activity [9] | Activity [10] | Activity [11] | Activity [12] | Activity [13] | Ratio IC50 [15] | inhibition [16] | Activity [17] | Activity [19] | Activity [20] | other results
1 | Active | 9.15 µM | 5.71 µM | 7.5 µM | 7.82 µM | COc1ccccc1C1Oc2ccccc2-c2cc(OCc3ccccc3)c(OCc3ccccc3)cc21 (stereo unspecified) | Tde | Active | 22.97% | Active | 51.3 µM | 36.93% | Active | 13.95% | Active | Active | 8.98 | Active | 11.71% | 32.56% | Active | Activity [21]: Dose-dependent effect; Activity [22]: Active; IC50 [23]: 10 µM
2 | Active | 8.4 µM | 6.32 µM | 9.32 µM | 9.1 µM | COc1cc2c(cc1OC)C(c1ccccc1OC)Oc1ccccc1-2 (stereo unspecified) | Tde | Active | 18.87% | Active | 48.9 µM | 34.38% | Active | 11.91% | Active | Active | 7.73 | Active | 12.98% | 31.22% | Active | Activity [21]: Dose-dependent effect; Activity [22]: Active; IC50 [23]: 13.2 µM
